# Patent US20170274014A1, “COMBINATIONS OF LOW, IMMUNE ENHANCING, DOSES OF MTOR INHIBITORS AND CARS” (Novartis AG, priority 2014, published 2017)
# Values joined by “and” are separate entries in the source; they are usually repeats but may differ in a detail not shown here. Identical values can stand only once. Like-named read-outs stand apart in the source and are kept apart here.
# Assays:
# [1] = tested on: PD-1 positive CD4 and CD8 T cells; design: species or system human; conditions: in vivo
# [2] = PK analysis of RAD001 in blood of tumor bearing NSG mice; format: in vivo; conditions: for concentration at 24 h: mouse, whole blood
# Experimental: RAD001 dosing: A concentrated micro-emulsion of 50 mg equal to 1 mg RAD001 was formulated and then resuspended in D5W (dextrose 5% in water) at the time of dosing. Mice were orally dosed daily (via oral gavage) with 200 μl of the desired doses of RAD001.
# PK analysis: Mice were dosed daily with RAD001 starting 7 days post tumor implantation. Dosing groups were as follows: 0.3 mg/kg, 1 mg/kg, 3 mg/kg, and 10 mg/kg. Mice were bled on days 0 and 14 following the first and last dose of RAD001, at the following time points for PK analysis: 15 minutes, 30 minutes, 1 hour, 2 hours, 4 hours, 8 hours, 12 hours, and 24 hours.
# [3] = tested on: B/Brisbane/60/2008; test: Hemagglutination inhibition titers after seasonal influenza vaccination, B vaccine strain; format: in vivo, human; conditions: for HI GMT B, Baseline: 2 weeks prior to influenza vaccination; for HI GMT B, Week 4: 4 weeks after influenza vaccination
# Experimental: (§1) The trial was observer-blind because the placebo in the RAD001 0.5 mg daily and 20 mg weekly cohorts differed slightly from the RAD001 tablets in those cohorts. […] The treatment duration for all cohorts was 6 weeks during which time subjects underwent safety evaluations in the clinic every 2 weeks. After subjects had been dosed for 4 weeks, RAD001 steady state levels were measured pre-dose and at one hour post dose. After completing the 6 week course of study drug, subjects were given a 2 week drug free break to reverse any possible RAD001-induced immunosuppression, and then were given a 2012 seasonal influenza vaccination (Agrippal®, Novartis Vaccines and Diagnostics, Siena, Italy) containing the strains H1N1 A/California/07/2009, H3N2 A/Victoria/210/2009, B/Brisbane/60/2008. Four weeks after influenza vaccination, subjects had serum collected for influenza titer measurements. Antibody titers to the 3 influenza vaccine strains as well as to 2 heterologous strains (A/H1N1 strain A/New Jersey/8/76 and A/H3N2 strain A/Victoria/361/11) were measured by standard hemagglutination inhibition assay (Kendal, A P et al. (1982) Concepts and procedures for laboratory-based influenza surveillance. Atlanta: Centers for Disease Control and Prevention B17-B35). Levels of IgG and IgM specific for the A/H1N1/California/07/2009 were measured in serum samples taken before and 4 weeks after influenza vaccination as described previously (Spensieri, F. et al. (2013) Proc. Natl. Acad. Sci. USA 110:14330-14335). Results were expressed as fluorescence intensity.
# The primary analysis of geometric mean titer ratios was done using a normal Bayesian regression model with non-informative priors. This model was fitted to each antibody titer on the log scale. The primary outcome in each model was the Day 84 measurement. The Day 63 measurement was included in the outcome vector. The model fitted using SAS 9.2 proc mixed with the prior statement. The covariance structure of the matrix was considered as unstructured (option type=UN). A flat prior was used. For the secondary analysis of seroconversion rates, logistic regression was used.
# The ability of RAD001 to improve immune function in elderly volunteers was evaluated by measuring the serologic response to the 2012 seasonal influenza vaccine. The hemagglutination inhibition (HI) geometric mean titers (GMT) to each of the 3 influenza vaccine strains at baseline and 4 weeks after influenza vaccination are provided in Table 6. The primary analysis variable was the HI GMT ratio (4 weeks post vaccination/baseline).
# Rates of seroconversion 4 weeks after influenza vaccination were also evaluated. Seroconversion was defined as the change from a negative pre-vaccination titer (i.e., HI titer <1:10) to post-vaccination HI titer ≧1:40 or at least 4-fold increase from a non-negative (≧1:10) pre-vaccination HI titer.
# [4] = tested on: NALM6-luc tumors; test: Growth of NALM6-luc tumors in NSG mice; format: in vivo; conditions: daily oral dosing of RAD001 alone
# [5] = in vivo
# [6] = tested on: A/H3N2 strain A/Victoria/361/11; test: Hemagglutination inhibition titers to heterologous A/H3N2 strain not in the vaccine; format: in vivo, human
# [7] = tested on: A/H1N1/California/07/2009; test: Serum anti-influenza IgG and IgM levels before and 4 weeks after vaccination; format: in vivo, human; conditions: RAD001 vs placebo treated cohorts
# Experimental: as §1, with “After completing the 6 week course of study drug, subjects were given a 2 week drug free break to reverse any possible RAD001-induced immunosuppression, and then were given a 2012 seasonal influenza vaccination (Agrippal®, Novartis Vaccines and Diagnostics, Siena, Italy) containing the strains H1N1 A/California/07/2009, H3N2 A/Victoria/210/2009, B/Brisbane/60/2008. Four weeks after influenza vaccination, subjects had serum collected for influenza titer measurements.” left out
# [8] = tested on: huCART19 cells; test: 4 day co-culture proliferation assay of CART cells with NALM6 target cells; format: cell-based, human; conditions: 4 day co-culture with NALM6, 1:1
# [9] = human, in vivo
# [10] = tested on: A/H1N1/California/07/2009 influenza; test: Anti-A/H1N1/California/07/2009 influenza IgG and IgM levels in serum before and after vaccination; format: in vivo, human; conditions: all p values >0.05 by Kruskal-Wallis rank sum test
# Experimental: FIGS. 4A and 4B are graphic representations of IgG and IgM levels before and after influenza vaccination. Levels of anti-A/H1N1/California/07/2009 influenza IgG and IgM were measured in serum obtained from subjects before and 4 weeks post influenza vaccination.
# [11] = tested on: pneumococcal serotypes; conditions: all 3 RAD cohorts; 7 of 23 serotypes measured
# [12] = tested on: humanized CD19 CART cells; conditions: RAD001 0.003 mg/kg daily with huCTL019; compared with normal level of huCAR19 proliferation
smiles,measurement,setting,value
"CO[C@H]1C[C@@H]2CC[C@@H](C)[C@@](O)(O2)C(=O)C(=O)N2CCCC[C@H]2C(=O)O[C@H]([C@H](C)C[C@@H]2CC[C@@H](OCCO)[C@H](OC)C2)CC(=O)[C@H](C)/C=C(\C)[C@@H](O)[C@@H](OC)C(=O)[C@H](C)C[C@H](C)/C=C/C=C/C=C/1C [RAD001, (1R,9S,12S,15R,16E,18R,19R,21R,23S,24E,26E,28E,30S,32S,35R)-1,18-dihydroxy-12-{(1R)-2-[(1S,3R,4R)-4-(2-hydroxyethoxy)-3-methoxycyclohexyl]-1-methylethyl}-19,30-dimethoxy-15,17,21,23,29,35-hexamethyl-11,36-dioxa-4-aza-tricyclo[30.3.1.04,9]hexatriaconta-16,24,26,28-tetraene-2,3,10,14,20-pentaone]",Decrease in PD-1 positive CD4 T cells compared to placebo cohort,[1],30.2% and 32.7%
same,Decrease in PD-1 positive CD8 T cells compared to placebo cohort,[1],37.4% and 41.4%
same,Percentage of CD4 PD-1 positive T cells,[1],decreased from baseline
same,Percentage of CD8 PD-1 positive cells,[1],decreased from baseline
same,Percentage of PD-1 negative CD4 T cells,[1],increased
same,concentration at 24 h,"[2]; NSG, lowest dose tested (0.3 mg/kg) oral daily, day 0 and day 14, read-out: RAD001 concentration in the blood 24 hours after dosing",> 10 nM
same,Stability in the blood of tumor bearing mice,"[2]; daily oral dosing, day 0 and day 14 PK",fairly stable
same,concentration at 24 h,"[2]; 0.3 mg/kg, NSG mice, daily oral dosing, read-out: Concentration of RAD001 24 hours after the final dose",> 10 nM
same,HI GMT ratio B (week 4 post vaccination/baseline),"[3]; 0.5 mg daily, N = 50",2.5
same,"HI GMT B, Baseline","[3]; 0.5 mg daily, N = 50",44.2
same,"HI GMT B, Week 4","[3]; 0.5 mg daily, N = 50",98.4
same,HI GMT ratio B (week 4 post vaccination/baseline),"[3]; 5 mg weekly, N = 49",2.2
same,"HI GMT B, Baseline","[3]; 5 mg weekly, N = 49",64.8
same,"HI GMT B, Week 4","[3]; 5 mg weekly, N = 49",117.3
same,HI GMT ratio B (week 4 post vaccination/baseline),"[3]; 20 mg weekly, N = 49",2.1
same,"HI GMT B, Baseline","[3]; 20 mg weekly, N = 49",58.0
same,"HI GMT B, Week 4","[3]; 20 mg weekly, N = 49",99.2
same,Percent of subjects with seroconversion to influenza B 4 weeks after vaccination,"[3]; Intention to Treat Population, 0.5 mg, N = 48",27%
same,Percent of subjects with seroconversion to influenza B 4 weeks after vaccination,"[3]; Intention to Treat Population, 5 mg, N = 49",22%
same,Percent of subjects with seroconversion to influenza B 4 weeks after vaccination,"[3]; Intention to Treat Population, 20 mg, N = 48",19%
same,Percent of subjects with seroconversion to influenza B 4 weeks after vaccination,"[3]; Subjects with Baseline Titers <=40, 0.5 mg, * p < 0.05 vs placebo",40* Percent
same,Percent of subjects with seroconversion to influenza B 4 weeks after vaccination,"[3]; Subjects with Baseline Titers <=40, 5 mg",33%
same,Percent of subjects with seroconversion to influenza B 4 weeks after vaccination,"[3]; Subjects with Baseline Titers <=40, 20 mg",28%
same,Impact on the growth of NALM6-luc tumors,[4],did not have an impact
same,Trough level of the immunization study regimens relative to approved transplant and oncology regimens,[5]; human,3-20 fold lower
same,Average RAD001 trough level,[5],below detection limits
same,Percentage of subjects who seroconvert to heterologous A/H3N2 strain A/Victoria/361/11 4 weeks after seasonal influenza vaccination,[6]; 0.5 mg daily,38%
same,Percentage of subjects who seroconvert to heterologous A/H3N2 strain A/Victoria/361/11 4 weeks after seasonal influenza vaccination,"[6]; 5 mg weekly, * p < 0.05 vs placebo",39%*
same,Percentage of subjects who seroconvert to heterologous A/H3N2 strain A/Victoria/361/11 4 weeks after seasonal influenza vaccination,"[6]; 20 mg weekly, * p < 0.05 vs placebo",40%*
same,Increase in the HI GMT ratio for the heterologous strain,[6]; RAD001 vs placebo cohorts,higher in the RAD001 as compared to placebo cohorts
same,H3N2 heterologous strain seroconversion rate,"[6]; pooled RAD001 cohorts, versus 20% for placebo, p=0.007",39%
same,Post-vaccination anti-influenza IgM and IgG levels,[7],did not differ between RAD001 and placebo treated cohorts
same,RAD001 concentration in whose presence huCART19 cells expanded (lesser extent at higher concentrations),[8],less than 0.016 nM
same,Deaths during the study,[9],No deaths occurred
same,Incidence of treatment-related AE: Blood cholesterol increased,[9],2 (3.8%) n (%)
same,Most common RAD001-related AE,[9],mouth ulcer
same,Tolerability,[9],well tolerated
same,"change from baseline to 4 weeks post vaccination in anti-H1N1 influenza IgG and IgM levels, RAD001 versus placebo cohorts",[10],No significant difference
same,Pneumococcal serotypes with increased antibody titers compared to placebo,[11],6/7
same,CAR T cell proliferation in vivo (CD4+ and CD8+ CAR T cells),[12],enhancement in CAR T cell proliferation
